# “Also recorded” adds a separate entry of the source. Read-outs that look alike come from different tables or passages of the source. Peptide text beside a SMILES is read from it.
# Experiments:
# [1] = Plasma pharmacokinetics of EP-100 after IV infusion (phase I); type: in vivo, human; conditions: for time at which C max was reached: majority of patients
# Description: Blood samples (approximately 5 mL) were collected on Cycle 1 Day 1 at the following times: pre-dose, 10 and 20 min after start of EP-100 infusion, prior to completion of the infusion (−3 min) and 2, 15, 30, 60 (±2), 120 (±2) and 240 (±5) min after the infusion. Concentrations of EP-100 in EDTA-anticoagulated plasma were assayed by a validated HPLC-Mass Spectrometry method developed at Covance (Indianapolis, IN). EP-100 and the internal standard were extracted from human plasma by solid-phase extraction and analyzed using liquid chromatography with tandem mass spectrometric detection (MS/MS). The lower limit of quantitation for EP-100 in human plasma was 0.025 μg/mL, with linearity demonstrable to 5 μg/mL (upper limit of quantitation). Plasma PK analysis for EP-100 was performed using non-compartmental methods with Phoenix™ WinNonlin® version 6.1 or higher (Pharsight Corp., Mountain View, CA). Concentration–time profiles were constructed from the plasma sample data. Estimates of the area under the plasma concentration time curve (AUC) and slope of the terminal decay phase were used to calculate values of the following pharmacokinetic parameters: apparent terminal phase half-life (t 1/2), total body clearance (CL), apparent time of maximum concentration (T max) and apparent volume of distribution (V z). Means and standard deviations are presented where applicable. Phoenix™ WinNonlin® was used to identify the terminal linear phase of the concentration–time profile. The number of points chosen was determined based on the largest regression coefficient, R ^2, obtained. A minimum of three data points was used for determination of λ z, the elimination rate constant, determined by the slope of the terminal linear phase. The R ^2 had to be ≥0.8 to be included in the pharmacokinetic results. Summary statistics were prepared using Microsoft Excel 2007, and graphics were prepared with SigmaPlot™ version 11.2 (Systat Software Inc., Richmond, CA).
# [2] = system: LHRH-receptor-positive human ovarian cancer cell line (OVCAR-3); parameters: method as in earlier work; conditions: mice implanted with OVCAR-3, three weekly doses; cited from earlier work
# [3] = cited from earlier work; for histamine release (clinical signs: swelling, redness or raised areas): pre-clinical studies; for well tolerated dose (as high as): repeated dose, ref Esperance data on file
# Description: Clinical signs of histamine release were eliminated in a female dog and lessened in a male dog when diphenhydramine was administered. Therefore, histamine release may cause IRDRs, but it remains unclear how EP-100 triggers IRDRs in humans and why the reaction is seen in skin only. Among patients experiencing IRDRs, hematolo ...
# [4] = system: advanced LHRH-receptor-expressing solid tumors; assay: Antitumor activity by RECIST version 1.1, tumor biomarkers and CTC; type: in vivo, human
# Description: A history and physical examination were conducted pre-study and before every cycle. A complete blood count, serum electrolytes and chemistries were evaluated pre-study and then weekly. Tumor response or progression was assessed by imaging studies at baseline and after every 2 cycles. RECIST version 1.1 criteria were used to assess response.
# FSH and LH levels as well as testosterone in men and estradiol levels in women were obtained on Days 1, 8, 15 and 22 within 24 h prior to dosing. Testosterone and estradiol levels were measured on Day 1 only after Cycle 1 and at off study assessment. Blood was collected for circulating tumor cells (CTC) prior to dosing on Day 1 of the first cycle. Patients with positive CTC at baseline also had blood collected for CTC analysis prior to dosing on Day 1 of each subsequent cycle. Additional studies included plasma cortisol, adrenocorticotropin (ACTH), thyroxine (T4) and thyroid-stimulating hormone (TSH) and blood for tumor specific biomarker analysis (at investigator’s discretion), all obtained prior to Day 1 dosing with each cycle and at off study assessment. Samples for antidrug antibodies (ADA) were collected on Day 1 of Cycle 1 and then on Day 1 of every odd cycle.
smiles,measurement,setting,value
CC(C)C[C@H](NC(=O)CNC(=O)[C@H](Cc1ccc(O)cc1)NC(=O)[C@H](CO)NC(=O)[C@H](Cc1c[nH]c2ccccc12)NC(=O)[C@H](Cc1c[nH]cn1)NC(=O)[C@@H]1CCC(=O)N1)C(=O)N[C@@H](CCCNC(=N)N)C(=O)N1CCC[C@H]1C(=O)NCC(=O)N[C@@H](CCCCN)C(=O)N[C@@H](Cc1ccccc1)C(=O)N[C@@H](C)C(=O)N[C@@H](CCCCN)C(=O)N[C@@H](Cc1ccccc1)C(=O)N[C@@H](C)C(=O)N[C@@H](CCCCN)C(=O)N[C@@H](CCCCN)C(=O)N[C@@H](Cc1ccccc1)C(=O)N[C@@H](C)C(=O)N[C@@H](CCCCN)C(=O)N[C@@H](Cc1ccccc1)C(=O)N[C@@H](C)C(=O)N[C@@H](CCCCN)C(=O)N[C@@H](CCCCN)C(=O)N[C@@H](Cc1ccccc1)C(=O)N[C@@H](C)C(=O)N[C@@H](CCCCN)C(=O)O [EP-100] (HELM PEPTIDE1{[Glp].H.W.S.Y.G.L.R.P.G.K.F.A.K.F.A.K.K.F.A.K.F.A.K.K.F.A.K}$$$$V2.0; C-terminus assumed),increase in C max with dose,"[1]; 0.6-40 mg/m^2, data highly variable",slightly greater than dose proportional
same,time at which C max was reached,[1]; EP-100 given over 30 min IV,20 to 40 min
same,time at which C max was reached,[1]; EP-100 given over 60 min IV,40 to 60 min
same,plasma concentrations versus concentrations active in vitro,[1]; doses of 5.2 mg/m^2 and above,reached the predicted “therapeutic” concentrations
same,"volume of distribution, V z",[1]; doses of 7.8 to 17 mg/m2 IV,"2,400 to 2,666 mL"
same,clearance,"[1]; human, plasma, 0.6 mg/m2, dose 0.6 mg/m^2 IV",299 mL/min
same,Vd,"[1]; human, plasma, 0.6 mg/m2, dose 0.6 mg/m^2 IV, read-out: volume of distribution, V z",4.35 L
same,clearance,"[1]; human, plasma, 5.2 mg/m2, dose 5.2 mg/m^2 IV",143 mL/min
same,Vd,"[1]; human, plasma, 5.2 mg/m2, dose 5.2 mg/m^2 IV, read-out: volume of distribution, V z",1.56 L
same,clearance,"[1]; human, plasma, 7.8 mg/m2, dose 7.8 mg/m^2 IV",223 mL/min
same,clearance,"[1]; human, plasma, 11.7 mg/m2, dose 11.7 mg/m^2 IV",222 mL/min
same,clearance,"[1]; human, plasma, 17 mg/m2, dose 17 mg/m^2 IV",110 mL/min
same,AUC(0-inf),"[1]; human, plasma, 40 mg/m2, highest dose level tested (40 mg/m^2), IV infusion, mean ± SD, read-out: mean AUC0–∞ (converted)",5430 ng·h/mL
same,Cmax,"[1]; human, plasma, 40 mg/m2, highest dose level tested (40 mg/m^2), IV infusion, mean ± SD, read-out: mean C max",4760 ng/mL
same,half-life,"[1]; human, plasma, 40 mg/m2, patients, IV infusion, highest dose tested (40 mg/m^2), read-out: terminal half-life",~15 min
same,Vd,"[1]; human, plasma, doses of 7.8 to 17 mg/m2 IV, read-out: volume of distribution, V z per body weight",~0.06 L/kg
same,in vivo activity,[2],decreased CA-125 levels and tumor regression
same,"histamine release (clinical signs: swelling, redness or raised areas)",[3]; beagle dogs,may trigger histamine release
same,"histamine release (clinical signs: swelling, redness or raised areas)",[3]; mice,may trigger histamine release
same,well tolerated dose (as high as),[3]; dogs,2.0 mg/kg
same,well tolerated dose (as high as),[3]; mice,2.0 mg/kg
same,objective tumor responses (RECIST version 1.1),"[4]; 37 patients, EP-100 single agent",No complete or partial tumor responses; also recorded: No objective tumor responses
same,treatment-related change in tumor biomarkers (CA-125 or PSA) or CTC values,[4]; patients,no treatment-related decreases
same,clinical benefit: patients with stable disease for 16 weeks or longer,"[4]; seven of 37 patients, EP-100 single agent",19%

# Reference: article PMC4000412, “Novel LHRH-receptor-targeted cytolytic peptide, EP-100: first-in-human phase I study in patients with advanced LHRH-receptor-expressing solid tumors” (Cancer Chemotherapy and Pharmacology, 2014)
